# Measurements published in the supplement of paper PMC10307832.
# What was measured:
# Experiment in all cases: relative viability (nuclei count vs DMSO), 5 days (fraction); higher = more cells survive
# JZL-184 + Phenformin = compound: C1CN(CCC1C(C2=CC3=C(C=C2)OCO3)(C4=CC5=C(C=C4)OCO5)O)C(=O)OC6=CC=C(C=C6)[N+](=O)[O-] [JZL-184] + N=C(N)NC(=N)NCCc1ccccc1 [Phenformin] (partner 250 µM)
# Outline: (§1)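 Lung cancer cell lines, seeded in 1536-well plates, were treated the following day by pin tool with a single drug or with five library-drug doses (not always all listed) in √10 steps on top of a fixed anchor-drug dose. Cells were fixed and nuclei stained in one step after 5 days, and nuclei were counted. Relative viability is the nuclei count for treated wells divided by that for vehicle wells, reported as medians of duplicate plates.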
# JZL-184 + Luminespib = compound: C1CN(CCC1C(C2=CC3=C(C=C2)OCO3)(C4=CC5=C(C=C4)OCO5)O)C(=O)OC6=CC=C(C=C6)[N+](=O)[O-] [JZL-184] + CCNC(=O)c1noc(-c2cc(C(C)C)c(O)cc2O)c1-c1ccc(CN2CCOCC2)cc1 [Luminespib] (partner 0.01 µM)
# Outline: as §1
# JZL-184 + Linsitinib = compound: C1CN(CCC1C(C2=CC3=C(C=C2)OCO3)(C4=CC5=C(C=C4)OCO5)O)C(=O)OC6=CC=C(C=C6)[N+](=O)[O-] [JZL-184] + C[C@]1(O)C[C@@H](c2nc(-c3ccc4ccc(-c5ccccc5)nc4c3)c3c(N)nccn32)C1 [Linsitinib] (partner 1 µM)
# Outline: as §1
# JZL-184 + Pictilisib = compound: C1CN(CCC1C(C2=CC3=C(C=C2)OCO3)(C4=CC5=C(C=C4)OCO5)O)C(=O)OC6=CC=C(C=C6)[N+](=O)[O-] [JZL-184] + CS(=O)(=O)N1CCN(Cc2cc3nc(-c4cccc5[nH]ncc45)nc(N4CCOCC4)c3s2)CC1 [Pictilisib] (partner 1 µM)
# Outline: as §1
# JZL-184 + Crizotinib = compound: C1CN(CCC1C(C2=CC3=C(C=C2)OCO3)(C4=CC5=C(C=C4)OCO5)O)C(=O)OC6=CC=C(C=C6)[N+](=O)[O-] [JZL-184] + C[C@@H](Oc1cc(-c2cnn(C3CCNCC3)c2)cnc1N)c1c(Cl)ccc(F)c1Cl [Crizotinib] (partner 1 µM)
# Outline: as §1
Cell Line,relative viability (JZL-184 + Phenformin; first compound 0.04 µM),relative viability (JZL-184 + Phenformin; first compound 0.4 µM),relative viability (JZL-184 + Phenformin; first compound 1.265 µM),relative viability (JZL-184 + Phenformin; first compound 4 µM),relative viability (JZL-184 + Luminespib; first compound 0.04 µM),relative viability (JZL-184 + Luminespib; first compound 0.4 µM),relative viability (JZL-184 + Luminespib; first compound 1.265 µM),relative viability (JZL-184 + Luminespib; first compound 4 µM),relative viability (JZL-184 + Linsitinib; first compound 0.04 µM),relative viability (JZL-184 + Linsitinib; first compound 0.4 µM),relative viability (JZL-184 + Linsitinib; first compound 1.265 µM),relative viability (JZL-184 + Linsitinib; first compound 4 µM),relative viability (JZL-184 + Pictilisib; first compound 0.04 µM),relative viability (JZL-184 + Pictilisib; first compound 0.4 µM),relative viability (JZL-184 + Pictilisib; first compound 1.265 µM),relative viability (JZL-184 + Pictilisib; first compound 4 µM),relative viability (JZL-184 + Crizotinib; first compound 0.04 µM),relative viability (JZL-184 + Crizotinib; first compound 0.4 µM),relative viability (JZL-184 + Crizotinib; first compound 1.265 µM),relative viability (JZL-184 + Crizotinib; first compound 4 µM)
NCI-H838,0.594,0.601,0.643,0.608,0.287,0.281,0.274,0.258,1.23,1.05,0.98,0.98,0.53,0.449,0.499,0.482,1.05,0.885,0.941,0.76
NCI-H3122,0.38,0.387,0.376,0.39,0.0989,0.0869,0.0901,0.11,1.03,0.949,1.03,0.971,0.678,0.602,0.59,0.581,0.27,0.237,0.282,0.323
SK-MES-1,0.736,0.64,0.688,0.615,0.913,0.765,0.874,0.726,1.07,1.04,1.1,1.06,0.348,0.408,0.389,0.349,1.03,0.867,1.01,0.924
NCI-H1944,0.194,0.192,0.198,0.199,0.615,0.682,0.766,0.754,1.18,1.2,1.28,1.16,0.345,0.318,0.34,0.335,1.27,1.04,1.12,1.04
LK-2,0.374,0.676,0.678,0.416,0.217,0.194,0.203,0.17,0.733,0.559,0.662,0.583,0.511,0.6,0.632,0.645,0.223,0.232,0.211,0.22
PC-3 [JPC-3],0.45,0.464,0.495,0.487,0.793,0.721,0.811,0.615,0.955,0.936,0.973,0.905,0.773,0.735,0.773,0.738,1.02,1.03,1.01,0.974
COR-L23,0.552,0.401,0.438,0.429,0.776,0.7,0.781,0.642,1.15,0.926,0.92,0.837,0.945,0.775,0.842,0.757,0.704,0.725,0.723,0.636
NCI-H1355,0.421,0.427,0.505,0.429,0.713,0.705,0.828,0.69,0.606,0.856,0.842,0.8,0.431,0.357,0.555,0.396,1.06,1.01,1.22,0.925
NCI-H460,0.626,0.483,0.521,0.485,0.0429,0.0344,0.0404,0.0362,1.03,0.623,0.87,0.72,0.385,0.332,0.404,0.374,0.993,0.81,0.839,0.912
NCI-H1993,0.428,0.476,0.487,0.47,0.846,0.745,0.885,0.968,0.703,0.773,0.727,0.696,0.721,0.864,0.847,0.794,0.956,0.805,0.934,0.903
ChaGo-K-1,0.616,0.449,0.467,0.44,0.592,0.591,0.623,0.598,–,–,–,–,1.03,0.585,1.04,0.741,1.31,1.08,1.08,1.06
HCC-15,0.548,0.467,0.485,0.454,0.421,0.294,0.343,0.339,0.939,0.889,1,0.781,0.957,0.664,0.814,0.697,0.944,0.808,0.883,0.762
NCI-H23,0.879,0.793,0.817,0.855,0.21,–,0.194,0.21,0.552,0.56,0.651,0.728,0.561,0.432,0.538,0.492,0.611,0.444,0.521,0.43
NCI-H1395,0.392,0.421,0.491,0.413,0.63,0.788,0.675,0.738,1.12,1.4,1.19,0.99,0.596,0.536,0.761,0.551,–,–,–,–
NCI-H1666,0.614,0.585,0.538,0.534,1.13,1.02,0.999,0.912,0.836,0.921,0.917,0.881,0.483,0.517,0.5,0.491,1.17,0.983,0.872,0.992
NCI-H2405,0.336,0.398,0.419,0.392,0.598,0.764,0.796,0.734,0.806,0.895,1.09,0.986,0.531,0.444,0.493,0.486,0.87,0.857,0.968,0.811
NCI-H2009,0.518,0.473,0.51,0.461,1.1,0.917,1.08,1.02,1.18,1.13,1.2,1.19,0.985,0.672,0.914,0.844,1.15,1.06,1.02,1.01

Cell Line,relative viability (JZL-184 + Phenformin; first compound 0.04 µM),relative viability (JZL-184 + Phenformin; first compound 0.4 µM),relative viability (JZL-184 + Phenformin; first compound 1.265 µM),relative viability (JZL-184 + Phenformin; first compound 4 µM),relative viability (JZL-184 + Luminespib; first compound 0.04 µM),relative viability (JZL-184 + Luminespib; first compound 0.4 µM),relative viability (JZL-184 + Luminespib; first compound 1.265 µM),relative viability (JZL-184 + Luminespib; first compound 4 µM),relative viability (JZL-184 + Linsitinib; first compound 0.04 µM),relative viability (JZL-184 + Linsitinib; first compound 0.4 µM),relative viability (JZL-184 + Linsitinib; first compound 1.265 µM),relative viability (JZL-184 + Linsitinib; first compound 4 µM),relative viability (JZL-184 + Pictilisib; first compound 0.04 µM),relative viability (JZL-184 + Pictilisib; first compound 0.4 µM),relative viability (JZL-184 + Pictilisib; first compound 1.265 µM),relative viability (JZL-184 + Pictilisib; first compound 4 µM),relative viability (JZL-184 + Crizotinib; first compound 0.04 µM),relative viability (JZL-184 + Crizotinib; first compound 0.4 µM),relative viability (JZL-184 + Crizotinib; first compound 1.265 µM),relative viability (JZL-184 + Crizotinib; first compound 4 µM)
HCC-78,0.63,0.611,0.754,0.752,–,–,–,–,0.355,0.513,0.535,0.474,0.204,0.188,0.248,0.2,0.34,0.317,0.359,0.341
NCI-H2170,0.435,0.407,0.419,0.419,0.712,0.651,0.762,0.491,–,–,–,–,0.341,0.309,0.332,0.331,1.38,1.17,1.27,1.17
NCI-H1793,0.162,0.368,0.44,0.456,0.162,0.165,0.153,0.156,0.849,0.82,0.853,0.707,0.295,0.214,0.344,0.31,–,–,–,–
HCC-366,0.664,0.553,0.653,0.624,–,–,–,–,0.643,0.49,0.675,0.63,0.158,0.179,0.155,0.113,0.827,0.443,0.526,0.5
NCI-H1651,0.393,0.3,0.337,0.353,0.894,0.797,0.902,0.765,0.988,0.927,0.933,0.816,0.842,0.533,0.536,0.499,0.896,0.839,0.895,0.87
LC-2-ad,0.639,0.549,0.67,0.538,1.27,0.891,1.11,1.03,0.857,0.698,0.839,0.829,0.546,0.388,0.658,0.461,0.695,0.454,0.481,0.42
HCC-827,0.424,0.376,0.424,0.379,0.804,0.587,0.91,0.671,0.988,0.976,0.949,0.89,0.915,0.908,1.01,1.06,0.918,0.888,0.977,0.854
SK-LU-1,0.528,0.504,0.677,0.564,0.312,0.201,0.215,0.2,1.29,1.02,1.11,1.11,0.631,0.517,0.7,0.611,1.05,0.889,1.15,1.11
ABC-1,0.225,0.224,0.301,0.247,1.23,0.557,0.628,0.495,0.988,0.821,0.812,0.756,0.946,0.71,0.898,0.625,1.35,0.925,1.33,1.21
NCI-H1703,–,–,–,–,–,–,–,–,0.893,0.765,0.738,0.305,0.265,0.216,0.288,0.246,0.865,0.554,0.726,0.508
COR-L 105,0.595,0.497,0.548,0.436,0.899,0.818,0.901,0.741,1.11,0.806,0.83,0.828,0.448,0.41,0.368,0.37,0.985,0.735,0.822,0.696
LOU-NH91,0.795,0.626,0.774,0.708,0.26,0.322,0.32,0.387,1,0.924,1.02,0.968,0.535,0.471,0.514,0.532,0.757,0.738,0.771,0.769
NCI-H1650,0.427,0.411,0.524,0.357,0.225,0.207,0.216,0.178,–,–,–,–,0.734,0.53,0.741,0.696,1.28,0.995,1.01,0.893
NCI-H2342,0.598,0.534,0.635,0.697,0.687,0.61,0.683,0.783,–,–,–,–,–,–,–,–,–,–,–,–
SW 900,0.595,0.506,0.555,0.748,0.16,0.18,0.18,0.196,–,–,–,–,–,–,–,–,–,–,–,–
NCI-H522,0.606,0.667,0.59,0.635,1.29,1.14,1.18,1.29,–,–,–,–,–,–,–,–,–,–,–,–
IA-LM,–,–,–,–,–,–,–,–,1.06,0.529,0.607,0.554,0.456,0.361,0.376,0.312,0.988,0.467,0.74,0.9
